Assay results taken from article PMC6657890 (PLoS ONE, 2019).

Biological target: T1, CV-IIL (Chromobacterium violaceum, UniProt Q7NX84)
T1 construct: gene CV_1744
Format: binding

T1 sequence (Q7NX84 2-114 limits assumed): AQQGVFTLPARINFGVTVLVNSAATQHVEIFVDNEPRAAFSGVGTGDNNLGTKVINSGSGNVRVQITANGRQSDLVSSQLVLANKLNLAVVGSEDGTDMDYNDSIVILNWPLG

| SMILES | Kd [µM] |
| --- | --- |
| OC[C@H]1OC(O)[C@@H](O)[C@@H](O)[C@@H]1O (stereo partly drawn) [D-mannose] | 25.6 |
| C[C@@H]1OC(O)[C@@H](O)[C@H](O)[C@@H]1O (stereo partly drawn) [L-fucose] | 8.2 |
